Data as given in patent publication US12551475B2, “Methods and compositions for treating RNA viral infections” (Model Medicines, Inc., priority 2020, dated 2026).
Read-outs that look alike come from different tables or passages of the source.

Columns and labels:
[1] = humans; cited from earlier work
[2] = rats; cited from earlier work
[3] = test system: adhesion of HuT 78 cells to ICAM-1; details: cited from earlier work
[4] = target: T1, LFA-1 interaction with ICAM-1 (Homo sapiens, UniProt P05107+P20701); details: Jurkat T cells; cited from earlier work
T1 construct: endogenous in cells; host or cells: Jurkat T cells
T1 sequence (P20701 26-1170): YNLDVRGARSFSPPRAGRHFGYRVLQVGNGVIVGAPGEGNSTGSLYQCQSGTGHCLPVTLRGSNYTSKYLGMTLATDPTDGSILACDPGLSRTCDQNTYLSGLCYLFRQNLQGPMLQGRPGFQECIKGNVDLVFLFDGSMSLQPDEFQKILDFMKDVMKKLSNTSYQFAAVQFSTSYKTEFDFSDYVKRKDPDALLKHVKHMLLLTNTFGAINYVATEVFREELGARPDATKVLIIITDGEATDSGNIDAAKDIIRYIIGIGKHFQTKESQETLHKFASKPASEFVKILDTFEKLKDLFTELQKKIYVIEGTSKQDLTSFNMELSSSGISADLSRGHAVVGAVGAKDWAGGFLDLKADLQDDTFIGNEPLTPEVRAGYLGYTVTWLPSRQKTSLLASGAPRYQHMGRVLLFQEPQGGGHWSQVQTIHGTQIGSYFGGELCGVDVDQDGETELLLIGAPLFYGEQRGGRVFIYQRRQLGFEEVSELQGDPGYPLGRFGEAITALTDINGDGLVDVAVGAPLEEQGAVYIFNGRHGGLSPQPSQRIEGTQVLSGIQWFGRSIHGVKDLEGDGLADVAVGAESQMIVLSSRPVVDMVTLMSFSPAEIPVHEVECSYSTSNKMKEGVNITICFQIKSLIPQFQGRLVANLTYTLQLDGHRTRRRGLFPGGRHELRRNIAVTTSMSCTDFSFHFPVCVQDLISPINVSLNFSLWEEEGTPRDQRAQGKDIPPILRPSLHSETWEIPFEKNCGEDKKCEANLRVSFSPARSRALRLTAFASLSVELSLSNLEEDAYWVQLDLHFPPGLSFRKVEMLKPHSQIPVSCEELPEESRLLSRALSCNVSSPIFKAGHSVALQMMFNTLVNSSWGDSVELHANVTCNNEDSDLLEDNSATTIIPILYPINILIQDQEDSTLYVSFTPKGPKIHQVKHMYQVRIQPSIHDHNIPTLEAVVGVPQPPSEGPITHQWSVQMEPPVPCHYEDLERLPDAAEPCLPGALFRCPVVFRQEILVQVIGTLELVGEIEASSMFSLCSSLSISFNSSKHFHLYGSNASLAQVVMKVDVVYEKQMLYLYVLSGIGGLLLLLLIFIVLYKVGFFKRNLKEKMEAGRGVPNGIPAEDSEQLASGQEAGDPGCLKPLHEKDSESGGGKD
T1 sequence (P05107 23-769): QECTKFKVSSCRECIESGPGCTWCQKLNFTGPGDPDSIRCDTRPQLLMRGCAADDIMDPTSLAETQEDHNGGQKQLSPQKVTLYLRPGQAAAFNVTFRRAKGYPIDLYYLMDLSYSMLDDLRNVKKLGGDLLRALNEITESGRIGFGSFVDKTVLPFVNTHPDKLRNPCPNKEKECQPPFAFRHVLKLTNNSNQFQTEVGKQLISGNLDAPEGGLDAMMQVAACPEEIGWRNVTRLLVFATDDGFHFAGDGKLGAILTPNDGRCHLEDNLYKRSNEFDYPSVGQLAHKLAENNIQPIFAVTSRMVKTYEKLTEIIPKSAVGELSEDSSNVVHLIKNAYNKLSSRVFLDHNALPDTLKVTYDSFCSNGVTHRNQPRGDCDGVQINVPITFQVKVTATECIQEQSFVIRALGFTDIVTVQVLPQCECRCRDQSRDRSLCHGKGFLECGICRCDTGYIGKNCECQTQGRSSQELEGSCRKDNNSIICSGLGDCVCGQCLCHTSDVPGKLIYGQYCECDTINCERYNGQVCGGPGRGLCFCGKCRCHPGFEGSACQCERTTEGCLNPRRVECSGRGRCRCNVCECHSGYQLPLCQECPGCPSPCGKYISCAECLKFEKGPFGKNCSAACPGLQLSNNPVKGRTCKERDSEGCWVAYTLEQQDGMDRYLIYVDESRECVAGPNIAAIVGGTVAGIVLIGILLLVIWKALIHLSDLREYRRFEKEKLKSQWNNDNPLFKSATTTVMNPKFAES

HIV-1 = details: cited from earlier work
L1210 cancer cells = details: cited from earlier work
BxPC-3 cancer cells = details: cited from earlier work
MP-2 cancer cells = details: cited from earlier work
CEM cancer cells = details: cited from earlier work
adenosine A2 receptors = details: cited from earlier work
SARS-CoV-2 [5] = experiment: microbe, parasite or virus in culture
[6] = humans; cited from earlier work; remark: listed apart in the source
[7] = in vivo, cited from earlier work
[8] = mice; cited from earlier work
SARS-CoV-2 [9] = test system: SARS-CoV-2
HeLa-ACE2 cells = experiment: Uninfected host cell cytotoxicity counter screen; assay type: cell-based, human; details: uninfected HeLa-ACE2, 24 h
Protocol: Compounds were acoustically transferred into 1,536-well clear plates (Greiner Part. No. 789091). HeLa-ACE2 cells were maintained as described for the infection assay and seeded in the assay-ready plates at 400 cells/well in DMEM with 2% FBS and plates were incubated for 24 hours at 37 5% CO2. To assess cell viability, the Image-iT DEAD green reagent (Thermo Fisher) was used according to manufacturer instructions. Cells were fixed with 4% paraformaldehyde, and counterstained with DAPI. Fixed cells were imaged using the ImageXpress Micro Confocal High-Content Imaging System (Molecular Devices) with a 10× objective, and total live cells per well quantified in the acquired images using the Live Dead Application Module (MetaXpress).
Image analysis was carried out with MetaXpress (version 6.5.4.532). Primary in vitro screen and the host cell cytotoxicity counter screen data were uploaded to Genedata Screener, Version 16.0.3-Standard. Data were normalized to neutral (DMSO) […] inhibitor controls (2.5 μM remdesivir for antiviral effect and 10 μM puromycin for infected host cell toxicity). For the uninfected host cell cytotoxicity counter screen 40 μM puromycin (Sigma) was used as the positive control. For dose response experiments compounds were tested in technical triplicates on different assay plates and dose curves were fitted with the four parameter Hill Equation. Technical replicate data were analyzed using median condensing.

[10] = target: pig striatum A2A receptor (Sus scrofa, UniProt K9IW67); details: cited from earlier work
Sequence of pig striatum A2A receptor (K9IW67 entry or part of it): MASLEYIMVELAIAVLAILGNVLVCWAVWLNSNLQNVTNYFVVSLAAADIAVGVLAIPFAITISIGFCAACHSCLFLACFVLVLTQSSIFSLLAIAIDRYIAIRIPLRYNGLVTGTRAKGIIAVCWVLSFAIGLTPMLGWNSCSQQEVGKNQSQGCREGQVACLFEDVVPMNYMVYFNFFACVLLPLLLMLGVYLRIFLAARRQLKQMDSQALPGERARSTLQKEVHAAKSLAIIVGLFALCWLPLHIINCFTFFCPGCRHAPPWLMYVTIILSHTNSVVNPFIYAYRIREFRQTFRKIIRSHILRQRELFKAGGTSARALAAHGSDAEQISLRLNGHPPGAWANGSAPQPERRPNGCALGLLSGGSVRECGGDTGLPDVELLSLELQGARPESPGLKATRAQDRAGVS

[11] = pig, in vivo; cited from earlier work

With `Cc1c(-c2ccc(O)cc2)n(Cc2ccc(OCCN3CCCCCC3)cc2)c2ccc(O)cc12` [Bazedoxifene] as the compound, how does the safely tolerated dose [1] read?
Its safely tolerated dose is 20 mg/day.

What about the safely tolerated dose [2] of the same compound?
Its safely tolerated dose is 100 mg/kg/day.

For `CS(=O)(=O)c1cccc(C[C@H](NC(=O)c2c(Cl)cc3c(c2Cl)CCN(C(=O)c2ccc4ccoc4c2)C3)C(=O)O)c1` [Lifitegrast, N-[[2-(6-benzofuranylcarbonyl)-5,7-dichloro-1,2,3,4-tetrahydro-6-isoquinolinyl]carbonyl]-3-(methylsulfonyl)-L-phenylalanine], which IC50 [3] is on record?
Its IC50 is 9 nM.

And the IC50 [4]?
Its IC50 is 2.98 nM.

Which EC50 (HIV-1) does the source give for `Cc1cccc(C)c1OCC(=O)N[C@@H](Cc1ccccc1)[C@@H](O)C[C@H](Cc1ccccc1)NC(=O)[C@H](C(C)C)N1CCCNC1=O` [Lopinavir, N-[(1S,3S,4S)-4-[[2-(2,6-dimethylphenoxy)acetyl]amino]-3-hydroxy-5-phenyl-1-(phenylmethyl)pentyl]tetrahydro-aS-(1-methylethyl)-2-oxo-1(2H)-pyrimidineacetamide] here?
Its EC50 is 5 to 52 nM.

For `C[C@H](NP(=O)(OC[C@H]1O[C@@H](n2ccc(N)nc2=O)C(F)(F)[C@@H]1O)Oc1ccccc1)C(=O)OCc1ccccc1` (stereo partly drawn) [NUC-1031, N-(2′-deoxy-2′,2′-difluoro-P-phenyl-5′-cytidylyl)-L-alanine, phenylmethyl ester], which IC50 (L1210 cancer cells) is on record?
The IC50 was 35 nM.

What about the IC50 (BxPC-3 cancer cells) of the same compound?
The IC50 was 40 nM.

What about the IC50 (MP-2 cancer cells) of the same compound?
The IC50 was 60 nM.

And the IC50 (CEM cancer cells)?
The IC50 was 30 nM.

With `CNC(=O)[C@H]1O[C@@H](n2cnc3c(NCc4cccc(I)c4)ncnc32)[C@H](O)[C@@H]1O` [Piclidenoson, 1-deoxy-1-[6-[[(3-iodophenyl)methyl]amino]-9H-purin-9-yl]-N-methyl-β-D-ribofuranuronamide] as the compound, how does the Ki (adenosine A2 receptors) read?
Its Ki is 3100 nM.

For `Cc1c(-c2ccc(O)cc2)n(Cc2ccc(OCCN3CCCCC3)cc2)c2ccc(O)cc12` [Pipendoxifene], which EC50 (SARS-CoV-2 [5]; Severe acute respiratory syndrome coronavirus 2, HeLa-ACE2, 24 h) is on record?
The EC50 was 8.24 µM.

What about the EC50 (SARS-CoV-2 [5]; Severe acute respiratory syndrome coronavirus 2, HeLa-ACE2, CoV-2/HeLa-ACE2 assay, unit uM) of the same compound?
The EC50 was 8.24 µM.

What about the EC90 (SARS-CoV-2 [5]; Severe acute respiratory syndrome coronavirus 2, HeLa-ACE2, read-out: EC90 (Hill equation, Equation I)) of the same compound?
Its EC90 is 15000 nM.

What about the EC90 (SARS-CoV-2 [5]; Severe acute respiratory syndrome coronavirus 2, HeLa-ACE2, read-out: EC90 range from both equations) of the same compound?
The EC90 was 14300 to 15000 nM.

What about the safely tolerated dose [6] of the same compound?
Its safely tolerated dose is “up to 200 mg/daily”.

What about the “half-life (t ½)” value ([7]; hamster) of the same compound?
The value was 30 h.

And the “half-life (t 1/2)” value [7]?
Its value is 15.8 to 27.3 h.

What about the safely tolerated dose [8] of the same compound?
The safely tolerated dose was “at least 20 mg/kg/day”.

And the EC90 (SARS-CoV-2 [9])?
The EC90 was 14300 nM.

And the “activity in the HeLa-ACE2 cell-based SARS-CoV-2 assay (in words)” value (SARS-CoV-2 [9])?
Its value is “demonstrated activity”.

And the EC50 (SARS-CoV-2 [9]; CoV-2/HeLa-ACE2 assay, unit uM)?
Its EC50 is 8.42 µM.

And the EC10 (SARS-CoV-2 [9]; derived from the graph)?
The EC10 was 5012 nM.

What about the “Hill coefficient (Nh)” value (SARS-CoV-2 [9]; slope of the dose response curve) of the same compound?
The value was 4.

What about the CC50 (HeLa-ACE2 cells) of the same compound?
Its CC50 is over 39800 nM.

Which results are given for `CNC(=O)c1cnn(-c2nc(N)c3ncn([C@@H]4O[C@H](CO)[C@@H](O)[C@H]4O)c3n2)c1` [Regadenoson, 2-[4-[(methylamino)carbonyl]-1H-pyrazol-1-yl]-adenosine]?
Ki [10]: 1.1 nM; half-time to reversal [11]: 1.9 to 2.6 min; increase of coronary blood flow [11]: 3.4- to 3.8 fold
